Measured values as given in patent publication US20220193081A1 (Ellamed IP & Services PTE. LTD., priority 2019, published 2022).

Test: HPLC assay on storage of sildenafil citrate with equal concentration of sucralose in pH adjusted 50% ethanol (Example 2)
Format: physicochemical
Settings: for Impurity B / Impurity D / sildenafil assay: 25° C., Day 285
Procedure: At room temperature, a phosphate buffer was prepared by weighing 3.9 g of NaH2PO4.2H2O into a 500 mL volumetric flask and adding approximately 300 mL of purified water until the phosphate fully dissolved. The pH was then adjusted to 7 with the introduction of NaOH and dilute to the requisite volume by the further addition of purified water.
A 50% ethanol mixture was prepared by introducing either purified water, taken from a MilliQ™ unit or phosphate buffer, to equivalent volumes of Ph.Eur. grade absolute alcohol. The pH of the resultant mixture was then adjusted by using either NaOH 1N solutions and/or Sodium Citrate 1N solutions to reach predetermined pH values.
Samples of sucralose were then dissolved in the pH adjusted 50% ethanol, whilst stirred with a magnetic stirrer and a needle, to a predetermined concentration. […] After preparation, the solutions were each filtered through PDVF 0.22 micro filter of 13 mm in size and placed in polypropylene containers of adequate volume.
Before being placed on storage, and at time points 7 and 42 days, the concentration of sildenafil in the mixture was assayed using HPLC. The samples were then stored at either −20° C., 2-8° C. or 25° C. for periods of up to 42 days. Periodically, the samples were visually inspected for evidence of precipitation or crystallization. […]
The samples of 21 mg/ml at a pH of 5.6 were maintained in stability testing at 25° C. for a total of 285 days.

[1] = 21 mg/ml, pH 5.6, Sodium Citrate

## CCCc1nn(C)c2c(=O)nc(-c3cc(S(=O)(=O)N4CCN(C)CC4)ccc3OCC)[nH]c12.O=C(O)CC(O)(CC(=O)O)C(=O)O [sildenafil citrate, 1-[[3-(4,7-Dihydro-1-methyl-7-oxo-3-propyl-1H-pyrazolo[4,3-d]pyrimidin-5-yl)-4-ethoxyphenyl]sulfonyl]-4-methylpiperazine citrate salt]
15 mg/ml, pH 6.2, Sodium Citrate, Day 0
  concentration of sildenafil by HPLC: 14750 µg/mL
18 mg/ml, pH 5.2, NaOH, 2-8 ° C., Day 7
  concentration of sildenafil by HPLC: 17890 µg/mL
18 mg/ml, pH 5.2, NaOH, 25 ° C., Day 7
  concentration of sildenafil by HPLC: 17930 µg/mL
18 mg/ml, pH 5.2, NaOH, Day 0
  concentration of sildenafil by HPLC: 18230 µg/mL
18 mg/ml, pH 5.2, Sodium Citrate, Day 0
  concentration of sildenafil by HPLC: 18090 µg/mL
18 mg/ml, pH 5.3, NaOH, 50% ethanol/phosphate buffer, 2-8 ° C., Day 7
  concentration of sildenafil by HPLC: 18050 µg/mL
18 mg/ml, pH 5.3, NaOH, 50% ethanol/phosphate buffer, 25 ° C., Day 7
  concentration of sildenafil by HPLC: 18070 µg/mL
18 mg/ml, pH 5.3, NaOH, 50% ethanol/phosphate buffer, Day 0
  concentration of sildenafil by HPLC: 18070 µg/mL
18 mg/ml, pH 5.6, NaOH, 2-8 ° C., Day 7
  concentration of sildenafil by HPLC: 17860 µg/mL
18 mg/ml, pH 5.6, NaOH, 2-8 ° C., Day 42
  concentration of sildenafil by HPLC: 18070 µg/mL
18 mg/ml, pH 5.6, NaOH, 25 ° C., Day 7
  concentration of sildenafil by HPLC: 17860 µg/mL
18 mg/ml, pH 5.6, NaOH, 25 ° C., Day 42
  concentration of sildenafil by HPLC: 18070 µg/mL
18 mg/ml, pH 5.6, NaOH, Day 0
  concentration of sildenafil by HPLC: 18130 µg/mL
18 mg/ml, pH 5.6, Sodium Citrate, 2-8 ° C., Day 7
  concentration of sildenafil by HPLC: 17820 µg/mL
18 mg/ml, pH 5.6, Sodium Citrate, 2-8 ° C., Day 42
  concentration of sildenafil by HPLC: 17880 µg/mL
18 mg/ml, pH 5.6, Sodium Citrate, 25 ° C., Day 7
  concentration of sildenafil by HPLC: 17820 µg/mL
18 mg/ml, pH 5.6, Sodium Citrate, 25 ° C., Day 42
  concentration of sildenafil by HPLC: 17910 µg/mL
18 mg/ml, pH 5.6, Sodium Citrate, Day 0
  concentration of sildenafil by HPLC: 18190 µg/mL
18 mg/ml, pH 5.63, NaOH, 50% ethanol/phosphate buffer, 2-8 ° C., Day 7
  concentration of sildenafil by HPLC: 18010 µg/mL
18 mg/ml, pH 5.63, NaOH, 50% ethanol/phosphate buffer, 25 ° C., Day 7
  concentration of sildenafil by HPLC: 18040 µg/mL
18 mg/ml, pH 5.63, NaOH, 50% ethanol/phosphate buffer, Day 0
  concentration of sildenafil by HPLC: 18180 µg/mL
18 mg/ml, pH 6.0, Sodium Citrate, 2-8 ° C., Day 7
  concentration of sildenafil by HPLC: 14950 µg/mL
18 mg/ml, pH 6.0, Sodium Citrate, 25 ° C., Day 7
  concentration of sildenafil by HPLC: 15080 µg/mL
18 mg/ml, pH 6.0, Sodium Citrate, Day 0
  concentration of sildenafil by HPLC: 17760 µg/mL
21 mg/ml, pH 5.29, NaOH, 50% ethanol/phosphate buffer, 2-8 ° C., Day 7
  concentration of sildenafil by HPLC: 20970 µg/mL
21 mg/ml, pH 5.29, NaOH, 50% ethanol/phosphate buffer, 25 ° C., Day 7
  concentration of sildenafil by HPLC: 20980 µg/mL
21 mg/ml, pH 5.29, NaOH, 50% ethanol/phosphate buffer, Day 0
  concentration of sildenafil by HPLC: 20940 µg/mL
21 mg/ml, pH 5.5, NaOH, 2-8 ° C., Day 7
  concentration of sildenafil by HPLC: 20860 µg/mL
21 mg/ml, pH 5.5, NaOH, 25 ° C., Day 7
  concentration of sildenafil by HPLC: 20970 µg/mL
21 mg/ml, pH 5.5, NaOH, Day 0
  concentration of sildenafil by HPLC: 21110 µg/mL
21 mg/ml, pH 5.5, Sodium Citrate, 2-8 ° C., Day 7
  concentration of sildenafil by HPLC: 21140 µg/mL
21 mg/ml, pH 5.5, Sodium Citrate, 25 ° C., Day 7
  concentration of sildenafil by HPLC: 21220 µg/mL
21 mg/ml, pH 5.5, Sodium Citrate, Day 0
  concentration of sildenafil by HPLC: 21320 µg/mL
21 mg/ml, pH 5.6, NaOH, 2-8 ° C., Day 7
  concentration of sildenafil by HPLC: 21040 µg/mL
21 mg/ml, pH 5.6, NaOH, 2-8 ° C., Day 42
  concentration of sildenafil by HPLC: 21430 µg/mL
21 mg/ml, pH 5.6, NaOH, 25 ° C., Day 7
  concentration of sildenafil by HPLC: 21020 µg/mL
21 mg/ml, pH 5.6, NaOH, 25 ° C., Day 42
  concentration of sildenafil by HPLC: 21320 µg/mL
21 mg/ml, pH 5.6, NaOH
  Impurity B: 0.00
  Impurity D: 0.02
  sildenafil assay: 21.16
21 mg/ml, pH 5.6, NaOH, 50% ethanol/phosphate buffer, 2-8 ° C., Day 7
  concentration of sildenafil by HPLC: 20930 µg/mL
21 mg/ml, pH 5.6, NaOH, 50% ethanol/phosphate buffer, 25 ° C., Day 7
  concentration of sildenafil by HPLC: 20990 µg/mL
21 mg/ml, pH 5.6, NaOH, 50% ethanol/phosphate buffer, Day 0
  concentration of sildenafil by HPLC: 20970 µg/mL
21 mg/ml, pH 5.6, NaOH, Day 0
  concentration of sildenafil by HPLC: 21200 µg/mL
21 mg/ml, pH 5.6, Sodium Citrate, 2-8 ° C., Day 7
  concentration of sildenafil by HPLC: 20990 µg/mL
21 mg/ml, pH 5.6, Sodium Citrate, 2-8 ° C., Day 42
  concentration of sildenafil by HPLC: 21410 µg/mL
21 mg/ml, pH 5.6, Sodium Citrate, 25 ° C., Day 7
  concentration of sildenafil by HPLC: 21060 µg/mL
21 mg/ml, pH 5.6, Sodium Citrate, 25 ° C., Day 42
  concentration of sildenafil by HPLC: 21270 µg/mL
[1]
  Impurity B: 0.01
  Impurity D: 0.02
  sildenafil assay: 21.14
21 mg/ml, pH 5.6, Sodium Citrate, Day 0
  concentration of sildenafil by HPLC: 21260 µg/mL
21 mg/ml, pH 5.8, NaOH, 2-8 ° C., Day 7
  concentration of sildenafil by HPLC: 20950 µg/mL
21 mg/ml, pH 5.8, NaOH, 25 ° C., Day 7
  concentration of sildenafil by HPLC: 21730 µg/mL
21 mg/ml, pH 5.8, NaOH, Day 0
  concentration of sildenafil by HPLC: 21150 µg/mL
21 mg/ml, pH 5.8, Sodium Citrate, 2-8 ° C., Day 7
  concentration of sildenafil by HPLC: 20960 µg/mL
21 mg/ml, pH 5.8, Sodium Citrate, 25 ° C., Day 7
  concentration of sildenafil by HPLC: 21070 µg/mL
21 mg/ml, pH 5.8, Sodium Citrate, Day 0
  concentration of sildenafil by HPLC: 21080 µg/mL
21 mg/ml, pH 6.01, NaOH, 50% ethanol/phosphate buffer, 2-8 ° C., Day 7
  concentration of sildenafil by HPLC: 16220 µg/mL
21 mg/ml, pH 6.01, NaOH, 50% ethanol/phosphate buffer, 25 ° C., Day 7
  concentration of sildenafil by HPLC: 18020 µg/mL
21 mg/ml, pH 6.01, NaOH, 50% ethanol/phosphate buffer, Day 0
  concentration of sildenafil by HPLC: 20770 µg/mL
Any of the conditions tested, up to 42 days
  breakdown products: No breakdown products were identified
